In patent US6403554B2, “Polyunsaturated fatty acid derivatives and their use” (Ardenia Investments Ltd., priority 1998, dated 2002):
“Also recorded” adds a separate entry of the source.

What was measured:
[1] = test system: antibody-forming cells (AFC) in the spleen; test: Influence of rat AFP/compound complex and compound alone on humoral immune response, C57B1/6 male mice; format: in vivo; conditions: compound alone, 5th day
Experimental: (§1) The influence of complexes of AFP with one of the title compounds 1-4, 1a-4a, 5-20 as well as their basic components on humoral immune response was estimated by counting the quantity of antibody-forming cells (AFC) in the mice spleen.
0.15 ml of AFP/Compound 7 complex (1:200) was administered intravenously to 6 male mice of C57B1/6 line (weight 18-22 g) in the dose of 9 μg of AFP and 91 μg of compound 7 per capita. Simultaneously, a suspension of 5·10^7 sheep erythrocytes was injected intraperitoneally (0.2 ml per capita). In the group with compound 7 mice were injected intravenously by one in the dose of 91 μg. Animals of group with AFP received 9 μg of AFP. Mice of control group were injected intravenously with equal volume of saline. AFP/Compound 7 complex effect on humoral immune response was analyzed by counting the quantity of AFC in the spleen according to Cunningham (per 10^6 spleen cells and per spleen).
0.15 ml of AFP/Compound 15 complex (1:200) was administered intravenously to 6 mice males of C57B1/6 line (weight 18-22 g) in the dose of 9 μg of AFP and 91 μg of compound 15 per capita. Simultaneously, a suspension of 5·10^7 sheep erythrocytes was injected intraperitoneally (0.2 ml per capita). In the group receiving compound 15, the mice were injected intravenously by one in the dose of 91 μg. Animals in the AFP-group received 9 μg of AFP. Mice in the control group were injected intravenously with an equal volume of saline. The effect of the AFP/Compound 15 complex on humoral immune response was analyzed by counting the quantity of AFC in the spleen according to Cunningham (per 10^6 spleen cells and per spleen).
(§2) 0.15 ml of AFP/Compound 1 complex was administered intravenously to 6 mice males of C57B1/6 line (weight 18-22 g) in the dose of 9 μg of AFP and 45.5 μg of compound 1 per capita. Simultaneously, a suspension of 5·10^7 sheep erythrocytes was injected intraperitoneally (0.2 ml per capita). In the group with compound 1 mice were injected intravenously by one in the dose of 45.5 μg. Animals of group with AFP received 9 μg of AFP. Mice in the control group were injected intravenously with an equal volume of saline. Complex AFP/Compound 1 effect on humoral immune response was analyzed by counting the quantity of AFC in the spleen according to Cunningham (per 10^6 spleen cells and per spleen).

[2] = test system: antibody-forming cells (AFC) in the spleen; test: Influence of compound on humoral immune response to sheep erythrocytes, C57B1/6 female mice (AFC in spleen, hemagglutinins); format: in vivo; conditions: for Amount of antibody-forming cells per 10^6 spleen cells / Amount of antibody-forming cells per spleen / Effect on relative amount of AFC (per 10^6 spleen cells) / Effect on total AFC amount (per spleen) / Effect on hemagglutinin titers / Spleen index / Amount of hemagglutinins: i.v.; for Amount of antibody-forming cells per 10^6 spleen cells / Amount of antibody-forming cells per spleen / Effect on relative amount of AFC (per 10^6 spleen cells) / Effect on total AFC amount (per spleen): 5th day; for Amount of antibody-forming cells per 10^6 spleen cells / Amount of antibody-forming cells per spleen: M ± SEM; for Effect on relative amount of AFC (per 10^6 spleen cells) / Effect on total AFC amount (per spleen) / Effect on hemagglutinin titers: vs control; for Spleen index: with SRBC i.p.; for Amount of hemagglutinins: serum
[3] = test system: antibody-forming cells (AFC) in the spleen; test: Influence of human AFP/compound complex and compound alone on humoral immune response, C57B1/6 male mice; format: in vivo; conditions: compound alone; for relative amount of AFC / total AFC amount: 5th day
Experimental: as §1
0.15 ml of AFP/Compound 3 complex was administered intravenously to 6 mice males of C57B1/6 line (weight 18-22 g) in the dose of […] of AFP and 45.5 μg of compound 3 per capita. Simultaneously suspension of 5·10^7 sheep erythrocytes was injected intraperitoneally (0.2 ml per capita). In the group with compound 3 mice were injected intravenously by one in the dose of 45.5 μg. Animals of group with AFP received 9 μg of AFP. Mice of control group were injected intravenously with equal volume of saline. Complex AFP/Compound 3 effect on humoral immune response was analyzed by counting the quantity of AFC in the spleen according to Cunningham (per 10^6 spleen cells and per spleen).
as §2, with “AFP/Compound 2a” for “AFP/Compound 1”, “complex (1:100)” for “complex”, “compound 2a” for “compound 1”, “saline. The effect of the” for “saline. Complex”, “AFP/Compound 2a complex” for “AFP/Compound 1 effect”
0.15 ml of AFP/Compound 10 complex (1:200) was administered intravenously to 6 male mice of C57B1/6 line (weight 18-22 g) in the dose of 9 μg of AFP and 91 μg of compound 10 per capita. Simultaneously, a suspension of 5·10^7 sheep erythrocytes was injected intraperitoneally (0.2 ml per capita). In the group receiving compound 10 mice were injected intravenously by one in the dose of 91 μg. Animals in the group with AFP received 9 μg of AFP. Micein the control group were injected intravenously with an equal volume of saline. The effect of the AFP/Compound 10 complex on humoral immune response was analyzed by counting the quantity of AFC in the spleen according to Cunningham (per 10^6 spleen cells and per spleen).
0.15 ml of AFP/Compound 14 complex (1:200) was administered intravenously to 6 male mice of C57B1/6 line (weight 18-22 g) in the dose of 9 μg of AFP and 91 μg of compound 14 per capita. Simultaneously, a suspension of 5·10^7 sheep erythrocytes was injected intraperitoneally (0.2 ml per capita). In the group with compound 14 mice were injected intravenously by one in the dose of 91 μg. Animals of group with AFP received 9 μg of AFP. Mice in the control group were injected intravenously with an equal volume of saline. The effect of the AFP/Compound 14 complex on humoral immune response was analyzed by counting the quantity of AFC in the spleen according to Cunningham (per 10^6 spleen cells and per spleen).

[4] = biological target: T1, human AFP (Homo sapiens, UniProt P02771); test: AFP binding: competitive substitution of [3H]arachidonic acid from the protein's binding site
T1 construct: from tissue; host or cells: human cord blood
Experimental: To tubes containing […] AFP in 1 ml 0.1 M bicarbonate buffer and 0.7 pmol [^3H]arachidonic acid and increasing amounts (5-5000 pmol) of arachidonic acid or any one of the title compounds 1-4, 1a-4a, and 5-20 were added. The tubes were incubated for 2 hr at room temperature. To separate protein-bound and free fractions of [^3H] arachidonic acid, tubes were incubated at 4° C. for 15 min with dextran covered activated carbon (0.5% suspension). The carbon was sedimented by centrifugation at 3000×g, aliquotes were added to 10 ml scintillating mixture and the vials were measured in a beta-counter.
The binding parameters of arachidonic acid and the compounds (1-4, 1a-4a, 5-16) the number of binding sites per protein molecule were calculated according to Scatchard (Scatchard O., Ann.N.Y.Acad.Sci. 51., p 660-664, 1949), and Blondeau (Blondeau J.-P., et al., Steroids, V. 32, N 5, P. 563-575, 1978).

[5] = test system: endothelial cells; conditions: cited from earlier work

T1 sequence (P02771 19-609): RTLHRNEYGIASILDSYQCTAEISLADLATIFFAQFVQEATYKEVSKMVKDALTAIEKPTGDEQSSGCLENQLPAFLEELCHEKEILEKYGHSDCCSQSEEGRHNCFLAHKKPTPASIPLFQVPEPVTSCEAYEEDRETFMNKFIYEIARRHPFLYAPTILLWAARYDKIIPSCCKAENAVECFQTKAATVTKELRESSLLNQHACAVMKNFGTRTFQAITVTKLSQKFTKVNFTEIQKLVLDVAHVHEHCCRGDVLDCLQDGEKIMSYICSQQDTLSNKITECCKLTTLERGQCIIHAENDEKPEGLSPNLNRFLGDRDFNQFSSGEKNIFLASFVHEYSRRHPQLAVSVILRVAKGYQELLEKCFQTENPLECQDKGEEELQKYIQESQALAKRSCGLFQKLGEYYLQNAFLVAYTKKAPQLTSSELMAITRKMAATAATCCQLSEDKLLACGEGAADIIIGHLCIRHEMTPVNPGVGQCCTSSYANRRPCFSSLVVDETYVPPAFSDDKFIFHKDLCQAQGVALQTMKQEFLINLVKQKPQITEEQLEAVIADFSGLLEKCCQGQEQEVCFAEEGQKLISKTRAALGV

## CC/C=C\C/C=C\C/C=C\C/C=C\C/C=C\CCCC(=O)N[C@H](C(=O)O)[C@@H](C)OP(=O)(O)O [Compound 15, N-(cis-5,8,11,14,17-eicosapentaenoyl)-O-phospho-L-threonine]
[1]; 91 μg/mouse i.v.
  relative amount of AFC: 594.7±41.4 cells per 10^6 spleen cells
  total AFC amount: 70.8±8.2 × 10^3

## CCCCC/C=C\C/C=C\C/C=C\C/C=C\CCCC(=O)N[C@H](C(=O)O)[C@@H](C)OP(=O)(O)O [Compound 7, N-(cis-5,8,11,14-eicosatetraenoyl)-O-phospho-L-threonine]
[1]; 91 μg/mouse i.v.
  relative amount of AFC: 574.9±39.6 cells per 10^6 spleen cells
  total AFC amount: 60.4±5.4 × 10^3

## CC/C=C\C/C=C\C/C=C\C/C=C\C/C=C\C/C=C\CCC(=O)N[C@@H](COP(=O)(O)O)C(=O)O [Compound 10, N-(cis-4,7,10,13,16,19-docosahexaenoyl)-O-phospho-L-serine]
[2]; 45.5 μg/mouse
  Amount of antibody-forming cells per 10^6 spleen cells: 304.9±46.6 cells per 10^6 spleen cells
  Amount of antibody-forming cells per spleen: 30.2±5.7 × 10^3
  Effect on relative amount of AFC (per 10^6 spleen cells): +11.6 p > 0.05%
  Effect on total AFC amount (per spleen): −3.5 p > 0.05%
  Effect on hemagglutinin titers: +11.4 p > 005%
  Spleen index: 6.9 ± 0.2 10^−3
[2]; 91 μg/mouse
  Amount of antibody-forming cells per 10^6 spleen cells: 326.2±65.4 cells per 10^6 spleen cells
  Amount of antibody-forming cells per spleen: 34.7±8.5 × 10^3
  Effect on relative amount of AFC (per 10^6 spleen cells): +19.4 p > 0.05%
  Effect on total AFC amount (per spleen): +10.9 p > 0.05%
  Effect on hemagglutinin titers: +11.4 p > 005%
  Spleen index: 6.6 ± 0.4 10^−3
[2]; 136.5 μg/mouse
  Amount of antibody-forming cells per 10^6 spleen cells: 651.6±48.2 cells per 10^6 spleen cells
  Amount of antibody-forming cells per spleen: 81.1±5.8 × 10^3
  Amount of hemagglutinins: 8.5±0.4 Log2 T
  Spleen index: 6.7 ± 0.2 10^−3
[2]; 45.5 and 91 μg/mouse
  Immunogenic activity: no immunogenic activity
[3]; 91 μg/mouse i.v.
  relative amount of AFC: 326.2±65.4 cells per 10^6 spleen cells
  total AFC amount: 34.7±8.5 × 10^3

## CCCCC/C=C\C/C=C\C/C=C\C/C=C\CCCC(=O)O [arachidonic acid]
[4]
  Kd: 16.7 nM
[4]; three independent determinations, Scatchard
  n (number of binding sites per protein molecule): > 1.2

## CC1=C(/C=C/C(C)=C/C=C/C(C)=C/C(=O)NCCOP(=O)(O)O)C(C)(C)CCC1 [Compound 1, N-(all-trans-Retinoyl)-O-phospho-2-aminoethanol]
[1]; 45.5 μg/mouse i.v.
  relative amount of AFC: 413.1±31.5 cells per 10^6 spleen cells
  total AFC amount: 38.4±3.7 × 10^3

## CC1=C(/C=C/C(C)=C/C=C/C(C)=C/C(=O)N[C@H](C(=O)O)[C@@H](C)OP(=O)(O)O)C(C)(C)CCC1 (relative stereo) [Compound 3, N-(all-trans-Retinoyl)-O-phospho-L-threonine]
[2]; 45.5 μg/mouse
  Immunogenic activity: no immunogenic activity
  Amount of antibody-forming cells per 10^6 spleen cells: 472.2±52.4 cells per 10^6 spleen cells
  Amount of antibody-forming cells per spleen: 44.6±3.9 × 10^3
  Effect on relative amount of AFC (per 10^6 spleen cells): +15.9 p > 00.05%
  Effect on total AFC amount (per spleen): +10.1 p > 0.05%
  Effect on hemagglutinin titers: +4.8 p > 0.05%
  Spleen index: 6.1 ± 0.3 10^−3
[2]; 91 μg/mouse
  immunostimulating effect in vivo in micelle form: display immunostimulating effect in vivo
  Amount of antibody-forming cells per 10^6 spleen cells: 827.7±34.6 cells per 10^6 spleen cells
  Amount of antibody-forming cells per spleen: 60.3±4.1 × 10^3
  Amount of hemagglutinins: 8.0±0.3 Log2 T
  Spleen index: 6.2 ± 0.2 10^−3
[2]; 136.5 μg/mouse
  Amount of antibody-forming cells per 10^6 spleen cells: 961.3±56.5 cells per 10^6 spleen cells
  Amount of antibody-forming cells per spleen: 107.0±8.5 × 10^3
  Amount of hemagglutinins: 8.7±0.3 Log2 T
  Spleen index: 6.8 ± 0.3 10^−3
[2]; 91 and 136.5 μg/mouse
  immunostimulating action: high immunostimulating action
[3]; 45.5 μg/mouse
  Immunogenic activity: no immunogenic activity; also recorded: do not inhibit immunogenic activity
[3]; 45.5 μg/mouse i.v.
  relative amount of AFC: 472.2±52.4 cells per 10^6 spleen cells
  total AFC amount: 44.6±3.9 × 10^3

## CCCCCCCC/C=C\CCCCCCCCCCCC(N)=O [Erucamide, 13-docosenamide]
[5]
  inflammatory effects: does not promote proliferation of endothelial cells or induce inflammatory effects
  proliferation of endothelial cells: does not promote proliferation of endothelial cells
